Legend:
Assay in all cases: relative viability vs DMSO control (72 h) (fraction); higher = more viable cells
G401 = test system: G401
Method in brief: (§1)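 A 5 µM positive control and 0.1% DMSO vehicle ran alongside sarcoma cell lines seeded in 384-well plates to reach 80–90% confluence. Serially diluted compound, 2.5 µl from source plates of 10 mM to 0.0002 mM, was added after 24 h, and the plates were held 72 h at 37 °C, 5% CO2. Relative viability was worked out from ATPLite readings as percent growth averaged over up to triplicate wells. The values were rescaled so that 1 is full and 0 is none.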

KHOS-240S = test system: KHOS-240S
Method in brief: as §1

SW1353 = test system: SW1353
Method in brief: as §1

SYO-1 = test system: SYO-1
Method in brief: as §1

SW982 = test system: SW982
Method in brief: as §1

HT1080 = test system: HT1080
Method in brief: as §1

KHOS-NP = test system: KHOS-NP
Method in brief: as §1

SW872 = test system: SW872
Method in brief: as §1

SW684 = test system: SW684
Method in brief: as §1

RD-ES = test system: RD-ES
Method in brief: as §1

A204 = test system: A204
Method in brief: as §1

SK-ES-1 = test system: SK-ES-1
Method in brief: as §1

CO[C@H]1C[C@@H]2CC[C@@H](C)[C@@](O)(O2)C(=O)C(=O)N2CCCC[C@H]2C(=O)O[C@H]([C@H](C)C[C@@H]2CC[C@@H](OCCO)[C@H](OC)C2)CC(=O)[C@H](C)/C=C(\C)[C@@H](O)[C@@H](OC)C(=O)[C@H](C)C[C@H](C)/C=C/C=C/C=C/1C [Certican]
Settings	relative viability
A204, 0.00017 µM	0.919
A204, 0.00051 µM	0.793
A204, 0.00152 µM	0.657
A204, 0.00457 µM	0.619
A204, 0.01372 µM	0.591
A204, 0.04115 µM	0.517
A204, 0.1235 µM	0.498
A204, 0.3704 µM	0.485
A204, 1.111 µM	0.487
A204, 3.333 µM	0.45
A204, 10 µM	0.43
G401, 0.00017 µM	0.9112
G401, 0.00051 µM	0.873
G401, 0.00152 µM	0.846
G401, 0.00457 µM	0.825
G401, 0.01372 µM	0.784
G401, 0.04115 µM	0.757
G401, 0.1235 µM	0.729
G401, 0.3704 µM	0.701
G401, 1.111 µM	0.683
G401, 3.333 µM	0.668
G401, 10 µM	0.642
HT1080, 0.00017 µM	1.04
HT1080, 0.00051 µM	1.04
HT1080, 0.00152 µM	1.09
HT1080, 0.00457 µM	1.09
HT1080, 0.01372 µM	1.08
HT1080, 0.04115 µM	0.985
HT1080, 0.1235 µM	0.998
HT1080, 0.3704 µM	1.02
HT1080, 1.111 µM	1.01
HT1080, 3.333 µM	1.01
HT1080, 10 µM	0.922
KHOS-240S, 0.00017 µM	1.05
KHOS-240S, 0.00051 µM	1.01
KHOS-240S, 0.00152 µM	0.935
KHOS-240S, 0.00457 µM	0.889
KHOS-240S, 0.01372 µM	0.851
KHOS-240S, 0.04115 µM	0.845
KHOS-240S, 0.1235 µM	0.815
KHOS-240S, 0.3704 µM	0.786
KHOS-240S, 1.111 µM	0.784
KHOS-240S, 3.333 µM	0.75
KHOS-240S, 10 µM	0.717
KHOS-NP, 0.00017 µM	1.05
KHOS-NP, 0.00051 µM	1.07
KHOS-NP, 0.00152 µM	1.07
KHOS-NP, 0.00457 µM	1.05
KHOS-NP, 0.01372 µM	1.03
KHOS-NP, 0.04115 µM	1
KHOS-NP, 0.1235 µM	1.02
KHOS-NP, 0.3704 µM	1.04
KHOS-NP, 1.111 µM	1.03
KHOS-NP, 3.333 µM	1.02
KHOS-NP, 10 µM	0.824
RD-ES, 0.00017 µM	0.967
RD-ES, 0.00051 µM	0.939
RD-ES, 0.00152 µM	0.843
RD-ES, 0.00457 µM	0.807
RD-ES, 0.01372 µM	0.772
RD-ES, 0.04115 µM	0.728
RD-ES, 0.1235 µM	0.676
RD-ES, 0.3704 µM	0.658
RD-ES, 1.111 µM	0.598
RD-ES, 3.333 µM	0.552
RD-ES, 10 µM	0.488
SK-ES-1, 0.00017 µM	1
SK-ES-1, 0.00051 µM	1.01
SK-ES-1, 0.00152 µM	0.983
SK-ES-1, 0.00457 µM	0.774
SK-ES-1, 0.01372 µM	0.694
SK-ES-1, 0.04115 µM	0.648
SK-ES-1, 0.1235 µM	0.592
SK-ES-1, 0.3704 µM	0.55
SK-ES-1, 1.111 µM	0.552
SK-ES-1, 3.333 µM	0.533
SK-ES-1, 10 µM	0.499
SW684, 0.00017 µM	1.08
SW684, 0.00051 µM	1.125
SW684, 0.00152 µM	1.069
SW684, 0.00457 µM	1.03
SW684, 0.01372 µM	0.914
SW684, 0.04115 µM	0.829
SW684, 0.1235 µM	0.844
SW684, 0.3704 µM	0.813
SW684, 1.111 µM	0.83
SW684, 3.333 µM	0.872
SW684, 10 µM	0.807
SW872, 0.00017 µM	0.922
SW872, 0.00051 µM	0.774
SW872, 0.00152 µM	0.6659
SW872, 0.00457 µM	0.645
SW872, 0.01372 µM	0.611
SW872, 0.04115 µM	0.592
SW872, 0.1235 µM	0.574
SW872, 0.3704 µM	0.561
SW872, 1.111 µM	0.567
SW872, 3.333 µM	0.584
SW872, 10 µM	0.584
SW982, 0.00017 µM	1
SW982, 0.00051 µM	0.882
SW982, 0.00152 µM	0.79
SW982, 0.00457 µM	0.756
SW982, 0.01372 µM	0.728
SW982, 0.04115 µM	0.68
SW982, 0.1235 µM	0.679
SW982, 0.3704 µM	0.645
SW982, 1.111 µM	0.618
SW982, 3.333 µM	0.599
SW982, 10 µM	0.604
SW1353, 0.00017 µM	0.915
SW1353, 0.00051 µM	0.875
SW1353, 0.00152 µM	0.855
SW1353, 0.00457 µM	0.772
SW1353, 0.01372 µM	0.76
SW1353, 0.04115 µM	0.746
SW1353, 0.1235 µM	0.708
SW1353, 0.3704 µM	0.71
SW1353, 1.111 µM	0.696
SW1353, 3.333 µM	0.677
SW1353, 10 µM	0.6966
SYO-1, 0.00017 µM	0.904
SYO-1, 0.00051 µM	0.876
SYO-1, 0.00152 µM	0.852
SYO-1, 0.00457 µM	0.84
SYO-1, 0.01372 µM	0.808
SYO-1, 0.04115 µM	0.788
SYO-1, 0.1235 µM	0.755
SYO-1, 0.3704 µM	0.755
SYO-1, 1.111 µM	0.729
SYO-1, 3.333 µM	0.738
SYO-1, 10 µM	0.742
